These results are taken from patent US11827616B2, “Heterocyclic compounds as pesticides” (Discovery Purchaser Corporation, priority 2018, dated 2023).

Where two headings read alike, the source gives them in different places.

Holding throughout (assay type): in vivo
One assay deals with Boophilus microplus. In words: Boophilus microplus injection test. The conditions noted are these: for efficacy (laying of fertile eggs): application rate 20 μg/animal, after 7 days. Here is the method:
Boophilus microplus—Injection Test
(§1) Solvent: dimethyl sulfoxide
To produce a suitable active compound formulation, 10 mg of active compound are mixed with 0.5 ml of solvent and the concentrate is diluted to the desired concentration with solvent.
1 μl of the active compound solution is injected into the abdomen of 5 engorged adult female cattle ticks (Boophilus microplus). The animals are transferred into dishes and kept in a climate-controlled room.
Efficacy is assessed after 7 days by laying of fertile eggs. Eggs which are not visibly fertile are stored in a climate-controlled cabinet until the larvae hatch after about 42 days. An efficacy of 100% means that none of the ticks has laid any fertile eggs; 0% means that all the eggs are fertile.

The next assay has as its system Phaedon cochleariae. In words: Phaedon cochleariae spray test. Particulars: for pest or weed control at 500 g/ha: Phaedon cochleariae, 168 h, read-out: efficacy. As to the method: Phaedon cochleariae—Spray Test
(§2) Solvent: 78.0 parts by weight of acetone • • 1.5 parts by weight of dimethylformamide
(§3) Emulsifier: alkylaryl polyglycol ether
(§4) To produce a suitable active compound formulation, 1 part by weight of active compound is dissolved with the specified parts by weight of solvent and made up to the desired concentration with water containing an emulsifier concentration of 1000 ppm. To produce further test concentrations, the formulation is diluted with emulsifier-containing water.
Discs of Chinese cabbage leaves (Brassica pekinensis) are sprayed with an active compound formulation of the desired concentration and, after drying, populated with larvae of the mustard beetle (Phaedon cochleariae).
After 7 days, the efficacy in % is determined. 100% means that all the beetle larvae have been killed; 0% means that no beetle larvae have been killed.

Another assay concerns Spodoptera frugiperda. As to the kind of experiment: Spodoptera frugiperda spray test. Particulars: for pest or weed control at 500 g/ha: Spodoptera frugiperda, 168 h, read-out: efficacy. Here is the method: Spodoptera frugiperda—Spray Test
as §2, §3, §4
Leaf discs of maize (Zea mays) are sprayed with an active compound formulation of the desired concentration and, after drying, populated with caterpillars of the fall armyworm (Spodoptera frugiperda).
After 7 days, the efficacy in % is determined. 100% means that all the caterpillars have been killed; 0% means that no caterpillar has been killed.

The test system of a further assay is Tetranychus urticae. In words: Tetranychus urticae spray test, OP-resistant. Particulars: application rate 500 g/ha; after 6 days. Here is the method:
Tetranychus urticae—Spray Test, OP-Resistant
Solvent: 78.0 Parts by Weight of Acetone • • 1.5 parts by weight of dimethylformamide
as §3, §4
Discs of bean leaves (Phaseolus vulgaris) infested with all stages of the greenhouse red spider mite (Tetranychus urticae) are sprayed with an active compound formulation of the desired concentration.
After 6 days, the efficacy in % is determined. 100% means that all the spider mites have been killed; 0% means that no spider mites have been killed.

The test system of a further assay is Ctenocephalides felis. In words: Ctenocephalides felis in vitro contact test with adult cat fleas. Particulars: application rate 5 μg/cm^2 (=500 g/ha); after 48 h. As to the method:
Ctenocephalides felis—In Vitro Contact Tests with Adult Cat Fleas
(§5) For the coating of the test tubes, 9 mg of active compound are first dissolved in 1 ml of acetone p.a. and then diluted to the desired concentration with acetone p.a. 250 μl of the solution are distributed homogeneously on the inner walls and the base of a 25 ml glass tube by turning and rocking on an orbital shaker (rocking rotation at 30 rpm for 2 h). With 900 ppm of active compound solution and internal surface area 44.7 cm^2, given homogeneous distribution, an area-based dose of 5 μg/cm^2 is achieved.
After the solvent has evaporated off, the tubes are populated with 5-10 adult cat fleas (Ctenocephalides felis), sealed with a perforated plastic lid and incubated in a horizontal position at room temperature and ambient humidity. After 48 h, efficacy is determined. To this end, the tubes are stood upright and the fleas are knocked to the base of the tube. Fleas which remain motionless at the base or move in an uncoordinated manner are considered to be dead or moribund.
100% efficacy means that all the fleas were dead or moribund. 0% efficacy means that no fleas were harmed.

The subject of another assay is Rhipicephalus sanguineus. As to the kind of experiment: Rhipicephalus sanguineus in vitro contact test with adult brown dog ticks. Particulars: application rate 5 μg/cm^2 (=500 g/ha); after 48 h. As to the method:
Rhipicephalus sanguineus—In Vitro Contact Tests with Adult Brown Dog Ticks
as §5
After the solvent has evaporated off, the tubes are populated with 5-10 adult dog ticks (Rhipicephalus sanguineus), sealed with a perforated plastic lid and incubated in a horizontal position in the dark at room temperature and ambient humidity. After 48 h, efficacy is determined. To this end, the ticks are knocked to the base of the tube and incubated on a hotplate at 45-50° C. for not more than 5 min. Ticks which remain motionless on the base or move in such an uncoordinated manner that they are unable to deliberately avoid the heat by climbing upwards are considered to be dead or moribund.
An efficacy of 100% means that all the ticks were dead or moribund. 0% efficacy means that none of the ticks were harmed.

The next assay concerns Lucilia cuprina. As to the kind of experiment: Lucilia cuprina test. Particulars: application rate 100 ppm; L1 larvae; after 2 days. As to the method: as §1
To produce a suitable active compound formulation, 10 mg of active compound are mixed with 0.5 ml of dimethyl sulfoxide, and the concentrate is diluted with water to the desired concentration.
About 20 L1 larvae of the Australian sheep blowfly (Lucilia cuprina) are transferred into a test vessel containing minced horsemeat and the active compound formulation of the desired concentration.
After 2 days, the kill in % is determined. 100% means that all the larvae have been killed; 0% means that no larvae have been killed.

[1] abbreviates: application rate 500 g/ha, after 7 days.

As for `CN(CCOc1cnc(COc2cccc3c(Cl)c(Cl)ccc23)c(F)c1)C(C)(C)C` [Example 36, N-{2-[(6-{[(5,6-dichloro-1-naphthyl)oxy]methyl}-5-fluoropyridin-3-yl)oxy]ethyl}-N,2-dimethylpropan-2-amine], in the assay on Boophilus microplus (Rhipicephalus microplus, 168 h, read-out: efficacy (laying of fertile eggs), application rate 20 μg/animal, after 7 days), the pest or weed control at 0.02 mg is 100%. Also, the pest or weed control at 500 g/ha with Phaedon cochleariae and in the assay on Spodoptera frugiperda was 100% throughout.

Take `CON(C)CCOc1ccc(COc2ccc(Cl)c(OC(F)(F)F)c2)nc1` [Example 73]: in the assay on Boophilus microplus, the “efficacy (laying of fertile eggs)” value is 80%. Further, the efficacy with Tetranychus urticae was determined as 100%.

Turning to `CON(C)CCOc1ccc(COc2cccc3c(Cl)c(Cl)ccc23)nc1Cl` [Example 18], the “efficacy (laying of fertile eggs)” value in the assay with Boophilus microplus was 100%. Further, the efficacy with Spodoptera frugiperda (setting [1]) was 100%.

Regarding `COc1cc(OCCN(C)OC)cnc1COc1cccc(-c2ccccc2)c1` [Example 94], in the assay with Boophilus microplus, the “efficacy (laying of fertile eggs)” value turned out to be 80%.

Consider `CCN(CC)CCOc1ccc(COc2cccc3c(Cl)c(Cl)ccc23)nc1` [Example 33], for which, in the assay with Boophilus microplus, the “efficacy (laying of fertile eggs)” value was determined as 80%. The efficacy in the assay with Phaedon cochleariae (setting [1]) and in the assay with Spodoptera frugiperda (setting [1]) was 100% in each case.

As to `CON(C)CCOc1ccc(COc2cccc3c(Cl)c(Cl)ccc23)nc1SC` [Example 52, 2-{[6-{[(5,6-dichloro-1-naphthyl)oxy]methyl}-2-(methylsulfanyl)pyridin-3-yl]oxy}-N-methoxy-N-methylethanamine], the pest or weed control at 500 g/ha in the assay with Phaedon cochleariae (setting [1]) and in the assay with Spodoptera frugiperda (setting [1]) was 100% each time.

In the assay with Phaedon cochleariae (setting [1]), `CON(C)CCOc1ncc(COc2ccc(Cl)c3ccccc23)cn1` [Example 98] came in with an efficacy of 100%.

`CON(C)CCOc1ncc(COc2ccc(Cl)c3ccccc23)cc1Cl` [Example 7] came in with an efficacy in the assay on Tetranychus urticae of 100%.

As for `CCN(CC)CCOc1ccc(COc2cccc3c(Cl)c(Cl)ccc23)cn1` [Example 9], in the assay with Ctenocephalides felis, the “efficacy (fleas dead or moribund)” value is given as 100%. Also, the “efficacy (ticks dead or moribund)” value in the assay on Rhipicephalus sanguineus worked out at 100%. Moreover, the “efficacy (laying of fertile eggs)” value with Boophilus microplus was 90%. For the same molecule, the efficacy in the assay with Phaedon cochleariae (setting [1]) was 83%; with Spodoptera frugiperda (setting [1]) it was 100%.

On to `CCN1CCN(c2cnc(COc3cccc4c(Cl)c(Cl)ccc34)c(F)c2)CC1` [Example 45], for which the efficacy with Phaedon cochleariae (setting [1]) and in the assay on Spodoptera frugiperda (setting [1]) was 100% each time.

In the case of `CC(C)N(CCOc1cnc(COc2ccc(Cl)c(OC(F)(F)F)c2)c(F)c1)C(C)C` [Example 79], in the assay on Phaedon cochleariae (setting [1]), the efficacy was found to be 100%.

As for `CON(C)CCOc1cnc(COc2ccc(F)c(Br)c2)c(F)c1` [Example 83], the “efficacy (laying of fertile eggs)” value in the assay with Boophilus microplus was 80%. In addition, in the assay on Tetranychus urticae, the efficacy came out at 100%.

Turning to `CN(CCOc1cnc(COc2cccc3c(Cl)c(Cl)ccc23)c(F)c1)C(C)(C)C` [Example 37, N-{2-[(6-{[(5,6-dichloro-1-naphthyl)oxy]methyl}-5-fluoropyridin-3-yl)oxy]ethyl}-N,2-dimethylpropan-2-aminium chloride], the “efficacy (fleas dead or moribund)” value with Ctenocephalides felis was 100%. Besides, in the assay on Boophilus microplus, the “efficacy (laying of fertile eggs)” value turned out to be 80%. The efficacy in the assay with Phaedon cochleariae (setting [1]) and in the assay on Spodoptera frugiperda (setting [1]) was 100% throughout.

Consider `CON(C)CCOc1cnc(COc2cccc(-c3cccc(F)c3)c2)c(F)c1` [Example 85], for which the efficacy in the assay with Spodoptera frugiperda (setting [1]) is 83%.

As for `COc1cc(OCCN(C)OC)cnc1COc1ccc(Cl)c2ccccc12` [Example 91], the “efficacy (laying of fertile eggs)” value in the assay with Boophilus microplus is given as 100%. The “efficacy (kill in %)” value in the assay on Lucilia cuprina turned out to be 80%. Further, the efficacy in the assay on Phaedon cochleariae (setting [1]) stood at 83%.

Molecule `CCN1CCN(c2cnc(COc3ccc4oc5ccccc5c4c3)c(F)c2)CC1` [Example 46] displayed an efficacy with Spodoptera frugiperda (setting [1]) of 83%.

In turn, `CC(C)N(C)CCOc1cnc(COc2ccc3oc4ccccc4c3c2)c(F)c1` [Example 43] had an efficacy with Phaedon cochleariae (setting [1]) of 100%.

Turning to `CN(CCOc1cnc(COc2ccc3oc4ccccc4c3c2)c(F)c1)C(C)(C)C.Cl` [Example 35], in the assay on Phaedon cochleariae (setting [1]), the efficacy is 83%.

In the case of `CON(C)CCOc1cnc(COc2ccc(Cl)c3ccccc23)c(Cl)c1` [Example 25], in the assay on Boophilus microplus, the “efficacy (laying of fertile eggs)” value came out at 100%. Moreover, the efficacy in the assay on Spodoptera frugiperda (setting [1]) worked out at 100%.

For `CON(C)CCOc1ccc(COc2ccc3oc4ccccc4c3c2)cn1` [Example 8], the efficacy in the assay with Phaedon cochleariae (setting [1]) and in the assay with Spodoptera frugiperda (setting [1]) was 100% each time.

In turn, `CC(C)N(CCOc1cnc(COc2ccc3oc4ccccc4c3c2)c(F)c1)C(C)C` [Example 40] came in with an efficacy in the assay with Phaedon cochleariae (setting [1]) of 100%.

On to `CON(C)CCOc1cnc(COc2cccc3c(F)cccc23)c(F)c1` [Example 24], for which the “efficacy (fleas dead or moribund)” value in the assay with Ctenocephalides felis is listed as 100%. In addition, the “efficacy (ticks dead or moribund)” value in the assay on Rhipicephalus sanguineus is on record as 100%. Besides, the “efficacy (laying of fertile eggs)” value with Boophilus microplus was 100%. Moreover, the efficacy in the assay on Spodoptera frugiperda (setting [1]) was 83%.

In the case of `CC(C)(C)NCCOc1cnc(COc2cccc3c(Cl)c(Cl)ccc23)c(F)c1` [Example 38], the “efficacy (laying of fertile eggs)” value in the assay with Boophilus microplus amounted to 100%. Also, the “efficacy (kill in %)” value in the assay on Lucilia cuprina is 80%. In addition, the efficacy in the assay with Phaedon cochleariae (setting [1]) and with Spodoptera frugiperda (setting [1]) was 100% each time.

Consider `CON(C)CCOc1cnc(COc2cccc(-c3cccc(Cl)c3)c2)c(F)c1` [Example 80], for which the “efficacy (ticks dead or moribund)” value with Rhipicephalus sanguineus stood at 100%. Moreover, the “efficacy (laying of fertile eggs)” value in the assay with Boophilus microplus turned out to be 100%. Further, the “efficacy (kill in %)” value in the assay with Lucilia cuprina is 100%. Moreover, the efficacy is 100% with Phaedon cochleariae (setting [1]) and 83% with Spodoptera frugiperda (setting [1]).

Regarding `Fc1cc(OCCN2CCCCC2)cnc1COc1cccc2c(Cl)c(Cl)ccc12` [Example 42], in the assay with Spodoptera frugiperda (setting [1]), the efficacy came to 100%.

As to `CON(C)CCOc1ccc(COc2ccc3oc4ccccc4c3c2)nc1` [Example 31], the “efficacy (ticks dead or moribund)” value with Rhipicephalus sanguineus amounted to 100%. Further, in the assay on Boophilus microplus, the “efficacy (laying of fertile eggs)” value was found to be 100%. In addition, the “efficacy (kill in %)” value in the assay on Lucilia cuprina is given as 100%. The efficacy with Phaedon cochleariae (setting [1]) and in the assay with Spodoptera frugiperda (setting [1]) was 100% each time.

For `CN(CC#N)CCOc1cnc(COc2cccc3c(Cl)c(Cl)ccc23)c(F)c1` [Example 28], the “efficacy (ticks dead or moribund)” value in the assay with Rhipicephalus sanguineus is 100%. Besides, the “efficacy (laying of fertile eggs)” value with Boophilus microplus is on record as 100%. Besides, in the assay with Lucilia cuprina, the “efficacy (kill in %)” value turned out to be 100%.

Molecule `Fc1cc(OCCN2CCCCC2)cnc1COc1ccc2oc3ccccc3c2c1` [Example 41] came in with an efficacy in the assay with Tetranychus urticae of 90%.

With `CN(CCOc1cnc(COc2ccc(F)c(-c3cccc(OC(F)(F)F)c3)c2)c(F)c1)C(C)(C)C.Cl` [Example 77], in the assay with Lucilia cuprina, the “efficacy (kill in %)” value stood at 90%. Also, the efficacy in the assay with Phaedon cochleariae (setting [1]) amounted to 83%; in the assay with Spodoptera frugiperda (setting [1]), 100%.

With `COc1cc(OCCN(C)OC)cnc1COc1cccc2c(Cl)c(Cl)ccc12` [Example 93], the “efficacy (laying of fertile eggs)” value in the assay on Boophilus microplus amounted to 100%. In the assay with Lucilia cuprina, the “efficacy (kill in %)” value worked out at 100%.

Consider `CN(CCOc1cnc(COc2cccc(-c3cccc(OC(F)(F)F)c3)c2)c(F)c1)C(C)(C)C` [Example 66], for which the efficacy in the assay with Phaedon cochleariae (setting [1]) and in the assay with Spodoptera frugiperda (setting [1]) was 100% throughout.
